From patent US7371780B2, “Use of calphostin C to treat drug-resistant tumor cells” (priority 2003, dated 2008)

What was measured:
[1] = tested on: MCF-7TAX cells; assay: Cytoplasmic shrinkage by hematoxylin/eosin staining, MCF-7TAX; type: cell-based, human
Experimental: For staining with hematoxylin and eosin, cells were grown in a six-well culture plate with each well containing a Snowcoat X-Tra™ microscope slide (Surgipath Laboratories, MB) immersed in 3 ml of H21 medium. When the cells reached 50% confluence, they were treated with 0-300 nM calphostin C, followed by a 2 hour exposure of the cultures to fluorescent light as described above. After light activation, the cells were placed in a 37° C. humidified incubator with 5% CO2 and incubated for an additional 22 hours. The cells were then stained with hematoxylin and eosin using a previously described procedure. Briefly, the media was removed from cell cultures and the cells that remained adhered to the slides were washed with PBS, fixed in formalin:acetone (1:2) for 2 min, and allowed to air dry for 10 min. After washing with distilled water, 250 μl of hematoxylin solution (BDH Chemicals, Toronto, ON) was placed on each slide and allowed to incubate with the cells for 5 min. The slides were then washed with distilled water, Scott's tap water (20 g MgSO4.7H2O, 1.5 g NaHCO3 in 1 L H2O), and a final wash with distilled water. The cells on the slides were then stained for 5 min in 250 μl of eosin solution (100 ml of 1% eosin, 10 ml of 1% phyloxine, 4 ml of glacial acetic acid, and 780 ml of 95% ethanol). The cells were then dehydrated by washing three times in 95% ethanol and twice in 100% ethanol. The small slide was then mounted on a standard microscope glass slide, and 10 randomly selected fields were viewed at 100× magnification and photographed. For each concentration of calphostin C, the total number of dead cells in each field was ascertained and expressed relative to the total number of cells in the field.

[2] = tested on: caspase-8, PARP and cytochrome C in MCF-7TAX cells; assay: Immunoblotting of apoptosis markers, MCF-7TAX; type: cell-based, human
Experimental: For preparation of mitochondrial and cytoplasmic cellular fractions, MCF-7, MCF-7TAX, and MCF-7DOX cells were grown in a monolayer to 70-90% confluence on 10 cm tissue culture plates. Twenty-four hours prior to extraction, the cells were treated with 50 nM light-activated calphostin C as described above. After this treatment, the cells were trypsinized, centrifuged at 1000 rpm in a Beckman GP centrifuge and washed with PBS. To the resulting cell pellet, 1 ml of ice-cold homogenization (HM) buffer was added. This buffer consisted of 85.55 g sucrose, 1.406 g MOPS, 0.292 g EDTA, and 1 ml ethanol per liter of solution, with a final pH of 7.2. Prior to use, 0.2 ml of 0.1 M PMSF, 1 Complete™ protease inhibitor tablet (Roche Diagnostics, Laval, QC), and 20 μl of 1 M DTT was added for 100 ml of HM buffer. Cells were then lysed 10 times by homogenization in a 2 ml dounce homogenizer. Nuclei in the lysate were then pelleted by centrifugation in a microfuge tube at 70 g for 10 minutes at 4° C. and the supernatant carefully removed. The supernatant was clarified by centrifugation at 1950 g for 10 minutes at 4° C. and the pellet (containing mitochondria) was resuspended in 50 μl of HM buffer. The remaining clarified supernatant was deemed the cytoplasmic fraction. […]

SMILES: COc1c(C[C@@H](C)OC(=O)Oc2ccc(O)cc2)c2c3c(C[C@@H](C)OC(=O)c4ccccc4)c(OC)c(=O)c4c(O)cc(OC)c(c5c(OC)cc(O)c(c1=O)c52)c43 [calphostin C]
- concentration required for complete cytoplasmic shrinkage [1]: 300 nM
- percentage of cells exhibiting cytoplasmic shrinkage ([1]; 25 nM calphostin C): remained unchanged
- percentage of cells exhibiting cytoplasmic shrinkage ([1]; 50 nM calphostin C): 23%
- caspase-8 and PARP cleavage (protein levels) ([2]; light-activated calphostin C, whole cell extracts): did not result in any change
- release of cytochrome C from mitochondria ([2]; mitochondrial and cytoplasmic fractions): no clear evidence for the release of cytochrome C
